Measured values taken from US11589584B2, “Synergistic combination of 1,3-bis(hydroxymethyl)-5,5-dimethylimidazolidine-2,4-dione with glyoxal” (MC (US) 3 LLC, priority 2018, dated 2023).

System: Pseudomonas aeruginosa (ATCC 8739) and Escherichia coli (ATCC 10145) mixed microorganism culture
Test: Synergy in the planktonic phase: 48 h biocide challenge, regrowth read by turbidity in recovery media
Assay type: cell-based
Settings: P. aeruginosa/E. coli mixed inoculum, phosphate buffer pH 7.3, 30° C., 48 hour challenge
Protocol: […] cultures were separately prepared from glycerol stocks. First they were streak plated and validated with a microscope. Single colonies were picked and used to inoculate 200 mL shake flasks that were grown statically overnight at 30° C. (30 grams/L Tryptic Soy Broth) to produce the initial inoculum of mixed microorganism culture. A deep-well 96 well challenge plate (2 mL maximum well volume) was prepared using 900 μL/well phosphate buffer at pH 7.3, (0.0027M potassium chloride, 0.137 M sodium chloride). Inoculation took place at the start of the experiments (with a 100 μL combined inoculum, adding to the 900 μL buffer to total 1 mL/well). […]
The inoculated assay block was challenged at 30° C. for 48 hours. […] This was done in triplicate for each point (the triplicate is already present in the biocide block viz. each point is truly determined in triplicate). […]
The recovery plates were subsequently read (checked for microbial growth) at 72 hours after addition of the culture, to recovery media. Ranking of biocidal efficacy was done by recording the development of turbidity within each well (determined by visual inspection). […] Ranking was done per average value of three data points determined per experiment. (Recorded in log regrowth).
Synergy Ratio Determined Using the Following Formulae. […]

Row | SMILES | DMDMH standalone 48 h pass (biocide used alone (QA)) [ppm] | Glyoxal standalone 48 h pass (used alone (QB)) [ppm]
1 | CC1(C)C(=O)N(CO)C(=O)N1CO [DMDMH, 1,3-Bis(hydroxymethyl)-5,5-dimethylimidazolidine-2,4-dione] | 420 | 
2 | O=CC=O [Glyoxal, oxaldehyde] |  | 1800
